Reference: patent US20250320189A1, “NEW DERIVATIVES FOR TREATING TRPM3 MEDIATED DISORDERS” (Katholieke Universiteit Leuven, priority 2022, published 2025)

Molecular target: T1, mouse TRPM3α2 (mTRPM3) ion channel (Mus musculus, UniProt J9SQF3)
T1 construct: expressed in transfected cells; host or cells: flip-in (Flp-In) HEK293
Test: Monitoring the TRPM3 ion channel driven Ca2+ uptake (Fluo-4 AM assay)
Type: cell-based
Conditions: mTRPM3alpha2 overexpressing flip-in HEK293 cells, stimulated with Pregnenolone sulfate (PS) 50 μM
Method: In order to monitor the inhibition of the mouse TRPM3α2 (mTRPM3) ion channel by the compounds of the invention, a cellular system making use of an mTRPM3alpha2 or hTRPM3 overexpressing cell line (flip-in HEK293) was used. The TRPM3 channel was stimulated/opened with Pregnenolone sulfate (PS) (50 μM) which results in Ca^2+ influx.
For mTRPM3, the intracellular Ca^2+ was measured with a Calcium responsive dye, Fluor-4 AMV ester (Invitrogen). Cells were cultured until a confluence of 80-90%, washed with Versene (Invitrogen) and detached from the surface by a short incubation with 0.05% Trypsin (Invitrogen). The trypsination process was stopped by the addition of complete cell culture medium (DMEM, glutamax, 10% FCS, NEAA,Pen-Strep). Cells were collected and resuspended in Krebs buffer without Calcium at RT.
Prior the cell seeding (±2000 cells/well into a black, 384 well plate (Greiner)) the diluted compound was added in the assay plate, together with the PS dissolved in Krebs buffer containing Calcium. […] Directly after cell addition the plates were read on an Envision fluorescence reader (PerkinElmer) by an Excitation of 485 nm and emission at 535 nm.
Channel inhibition was calculated compared to a non-PS stimulated control versus a condition stimulated with PS (50 μM) with vehicle. The ability of the compounds of the invention to inhibit this activity was determined as: Percentage inhibition=[1−((RFU determined for sample with test compound present−RFU determined for sample with positive control inhibitor) divided by (RFU determined in the presence of vehicle−RFU determined for sample with positive control inhibitor))]*100.
The activities of the Example compounds tested are depicted in the table below. The activity ranges A, B and C refer to IC50 values in the Fluo-4 AM assay as follows: “A”: IC50<1 μM; “B”: 1 μM≤IC50≤20 μM and “C”: IC50>20 μM

T1 sequence (J9SQF3 1-1709 isoform J9SQF3-12): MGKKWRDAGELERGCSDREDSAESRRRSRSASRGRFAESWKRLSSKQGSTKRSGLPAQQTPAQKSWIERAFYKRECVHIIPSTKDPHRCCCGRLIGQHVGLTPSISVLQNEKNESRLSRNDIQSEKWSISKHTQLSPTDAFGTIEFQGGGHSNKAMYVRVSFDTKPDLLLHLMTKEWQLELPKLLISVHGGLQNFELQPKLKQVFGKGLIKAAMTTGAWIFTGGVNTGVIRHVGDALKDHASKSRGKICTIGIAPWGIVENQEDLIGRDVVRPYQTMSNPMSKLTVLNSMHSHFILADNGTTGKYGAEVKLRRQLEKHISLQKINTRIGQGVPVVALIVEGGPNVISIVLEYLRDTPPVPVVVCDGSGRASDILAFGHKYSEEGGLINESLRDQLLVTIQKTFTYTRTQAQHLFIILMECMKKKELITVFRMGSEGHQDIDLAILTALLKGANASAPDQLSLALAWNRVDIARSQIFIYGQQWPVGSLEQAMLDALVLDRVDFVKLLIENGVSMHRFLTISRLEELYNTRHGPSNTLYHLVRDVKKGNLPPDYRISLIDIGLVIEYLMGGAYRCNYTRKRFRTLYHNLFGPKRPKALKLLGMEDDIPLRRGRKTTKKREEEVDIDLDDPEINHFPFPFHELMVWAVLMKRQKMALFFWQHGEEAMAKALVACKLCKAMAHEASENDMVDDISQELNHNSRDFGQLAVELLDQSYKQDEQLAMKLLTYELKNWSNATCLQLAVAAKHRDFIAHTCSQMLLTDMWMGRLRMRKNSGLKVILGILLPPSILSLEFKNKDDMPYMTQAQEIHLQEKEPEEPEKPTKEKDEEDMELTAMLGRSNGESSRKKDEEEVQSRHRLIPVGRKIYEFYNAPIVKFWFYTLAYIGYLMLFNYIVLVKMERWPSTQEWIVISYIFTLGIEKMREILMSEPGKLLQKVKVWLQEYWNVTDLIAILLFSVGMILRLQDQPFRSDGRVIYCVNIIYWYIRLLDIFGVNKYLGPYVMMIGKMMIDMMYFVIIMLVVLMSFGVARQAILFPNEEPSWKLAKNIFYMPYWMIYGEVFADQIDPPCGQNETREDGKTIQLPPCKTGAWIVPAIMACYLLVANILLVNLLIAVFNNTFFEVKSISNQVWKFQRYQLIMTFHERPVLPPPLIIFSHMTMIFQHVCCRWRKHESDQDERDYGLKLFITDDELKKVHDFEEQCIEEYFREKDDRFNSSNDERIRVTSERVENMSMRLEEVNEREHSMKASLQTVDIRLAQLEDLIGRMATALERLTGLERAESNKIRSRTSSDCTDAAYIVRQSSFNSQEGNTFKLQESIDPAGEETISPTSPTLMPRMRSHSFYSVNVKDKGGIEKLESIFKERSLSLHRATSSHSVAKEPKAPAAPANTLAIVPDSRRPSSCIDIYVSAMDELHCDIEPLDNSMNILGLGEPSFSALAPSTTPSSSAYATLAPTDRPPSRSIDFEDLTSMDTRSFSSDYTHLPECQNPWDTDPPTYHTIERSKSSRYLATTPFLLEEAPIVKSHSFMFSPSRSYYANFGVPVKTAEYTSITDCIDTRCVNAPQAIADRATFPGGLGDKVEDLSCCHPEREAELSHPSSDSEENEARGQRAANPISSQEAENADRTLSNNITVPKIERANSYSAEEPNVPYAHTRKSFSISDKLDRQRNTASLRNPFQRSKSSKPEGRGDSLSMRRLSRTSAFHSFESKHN

Row | Compound | IC50 [nM]
1 | Cc1oc2ccc(OCC3CC3)cc2c1C(=O)NC(C)(CO)CC(F)F (single isomer, unassigned) [Cpd 046 - En2, 5-(cyclopropylmethoxy)-N-(4,4-difluoro-1-hydroxy-2-methylbutan-2-yl)-2-methyl-1-benzofuran-3-carboxamide] | < 1000
2 | Cc1oc2ccc(OCC(F)(F)F)cc2c1C(=O)NC(C)(CO)C(N)=O (single isomer, unassigned) [Cpd 047 - En1, 3-hydroxy-2-methyl-2-{[2-methyl-5-(2,2,2-trifluoroethoxy)-1-benzofuran-3-yl]formamido}propanamide] | 1000 to 20000
3 | Cc1oc2ccc(OCC3CCC3)cc2c1C(=O)NC(C)(C)C(N)=O [Cpd 015, 2-{[5-(cyclobutylmethoxy)-2-methyl-1-benzofuran-3-yl]formamido}-2-methylpropanamide] | < 1000
4 | COCC(C)(CO)NC(=O)c1c(C)oc2ccc(OCC3(C(F)(F)F)CC3)cc12 (single isomer, unassigned) [Cpd 060 - En1, N-(1-hydroxy-3-methoxy-2-methylpropan-2-yl)-2-methyl-5-{[1-(trifluoromethyl)cyclopropyl]methoxy}-1-benzofuran-3-carboxamide] | 1000 to 20000
5 | Cc1oc2ccc(OC[C@@H]3C[C@@H]4C[C@@H]4C3)cc2c1C(=O)NC(C)(CO)C(N)=O (single isomer, unassigned) [Cpd 050 - En2, Cis-2-{[5-({bicyclo[3.1.0]hexan-3-yl}methoxy)-2-methyl-1-benzofuran-3-yl]formamido}-3-hydroxy-2-methylpropanamide] | < 1000
6 | Cc1oc2ccc(OCC3CCCC3)cc2c1C(=O)NC(C)(CO)C(N)=O (single isomer, unassigned) [Cpd 062 - En1, 2-{[5-(cyclopentylmethoxy)-2-methyl-1-benzofuran-3-yl]formamido}-3-hydroxy-2-methylpropanamide] | < 1000
7 | Cc1oc2ccc(OCC3CC3)cc2c1C(=O)NC1CCNCC1(F)F (single isomer, unassigned) [Cpd 024-En2, 5-(cyclopropylmethoxy)-N-(3,3-difluoropiperidin-4-yl)-2-methyl-1-benzofuran-3-carboxamide] | < 1000
8 | Cc1oc2cc(F)c(OCC3CC3)cc2c1C(=O)NC(C)(CO)C(N)=O (single isomer, unassigned) [Cpd 045 - En2, 2-{[5-(cyclopropylmethoxy)-6-fluoro-2-methyl-1-benzofuran-3-yl]formamido}-3-hydroxy-2-methylpropanamide] | < 1000
9 | Cc1oc2ccc(OCC3CC3)cc2c1C(=O)NC1CCN(C)CC1 [Cpd 021, 5-(cyclopropylmethoxy)-2-methyl-N-(1-methylpiperidin-4-yl)-1-benzofuran-3-carboxamide] | 1000 to 20000
10 | Cc1oc2ccc(OCC(C)(C)C)cc2c1C(=O)N[C@@H](CO)C(N)=O [Cpd 039, (2S)-2-{[5-(2,2-dimethylpropoxy)-2-methyl-1-benzofuran-3-yl]formamido}-3-hydroxypropanamide] | < 1000
11 | Cc1oc2ccc(OCC(C)C)cc2c1C(=O)NC1CCNCC1(F)F (single isomer, unassigned) [Cpd 042-En1, N-(3,3-difluoropiperidin-4-yl)-2-methyl-5-(2-methylpropoxy)-1-benzofuran-3-carboxamide] | 1000 to 20000
12 | Cc1oc2ccc(OCC3CC3)cc2c1C(=O)NC1(CO)CCCNC1=O (single isomer, unassigned) [Cpd 027 - En1, 5-(cyclopropylmethoxy)-N-[3-(hydroxymethyl)-2-oxopiperidin-3-yl]-2-methyl-1-benzofuran-3-carboxamide] | < 1000
13 | Cc1oc2ccc(OC[C@H]3C[C@@H]4C[C@@H]4C3)cc2c1C(=O)NC(C)(CO)C(N)=O (single isomer, unassigned) [Cpd 051 - En1, Trans-2-{[5-({bicyclo[3.1.0]hexan-3-yl}methoxy)-2-methyl-1-benzofuran-3-yl]formamido}-3-hydroxy-2-methylpropanamide] | < 1000
14 | Cc1oc2ccc(OCC3CC3)cc2c1C(=O)NC1CCCNC1=O (single isomer, unassigned) [Cpd 055 - En1, 5-(cyclopropylmethoxy)-2-methyl-N-(2-oxopiperidin-3-yl)-1-benzofuran-3-carboxamide] | < 1000
15 | Cc1oc2ccc(OCC3(C(F)(F)F)CC3)cc2c1C(=O)NC1(C)CCCNC1=O (single isomer, unassigned) [Cpd 061 - En2, 2-methyl-N-(3-methyl-2-oxopiperidin-3-yl)-5-{[1-(trifluoromethyl)cyclopropyl]methoxy}-1-benzofuran-3-carboxamide] | 1000 to 20000
16 | Cc1oc2ccc(OCC3CC(F)(F)C3)cc2c1C(=O)NC(C)(CO)C(N)=O (single isomer, unassigned) [Cpd 054 - En1, 2-({5-[(3,3-difluorocyclobutyl)methoxy]-2-methyl-1-benzofuran-3-yl}formamido)-3-hydroxy-2-methylpropanamide] | 1000 to 20000

Now from value to molecule:

Row | IC50 [nM] | Compound
17 | < 1000 | Cc1oc2ccc(OCC3CC3)cc2c1C(=O)NC1(C(N)=O)COC1 [Cpd 034, N-(3-carbamoyloxetan-3-yl)-5-(cyclopropylmethoxy)-2-methyl-1-benzofuran-3-carboxamide]
18 | < 1000 | Cc1oc2ccc(OCC3CC3(F)F)cc2c1C(=O)NC1CCNCC1(F)F (single isomer, unassigned) [Cpd 031 - En4, 5-[(2,2-difluorocyclopropyl)methoxy]-N-(3,3-difluoropiperidin-4-yl)-2-methyl-1-benzofuran-3-carboxamide]
19 | < 1000 | Cc1oc2ccc(OCC3CC3)cc2c1C(=O)N[C@@H](CO)C(N)=O [Cpd 001, (2S)-2-{[5-(cyclopropylmethoxy)-2-methyl-1-benzofuran-3-yl]formamido}-3-hydroxypropanamide]
20 | < 1000 | Cc1oc2ccc(OCC3CC3)cc2c1C(=O)NC1(C(N)=O)CCOC1 (single isomer, unassigned) [Cpd 035 - En1, N-(3-carbamoyloxolan-3-yl)-5-(cyclopropylmethoxy)-2-methyl-1-benzofuran-3-carboxamide]
21 | < 1000 | NC(=O)[C@H](CO)NC(=O)c1c(C2CC2)oc2ccc(OCC3CC3)cc12 [Cpd 004, (2S)-2-{[2-cyclopropyl-5-(cyclopropylmethoxy)-1-benzofuran-3-yl]formamido}-3-hydroxypropanamide]
22 | < 1000 | Cc1oc2ccc(OCC3CC3)cc2c1C(=O)NC1(CO)CCNC1=O (single isomer, unassigned) [Cpd 028 - En1, 5-(cyclopropylmethoxy)-N-[3-(hydroxymethyl)-2-oxopyrrolidin-3-yl]-2-methyl-1-benzofuran-3-carboxamide]
23 | < 1000 | Cc1oc2ccc(OCCC3CC3)cc2c1C(=O)N[C@@H](CO)C(N)=O [Cpd 005, (2S)-2-{[5-(2-cyclopropylethoxy)-2-methyl-1-benzofuran-3-yl]formamido}-3-hydroxypropanamide]
24 | 1000 to 20000 | Cc1oc2ccc(OCC3CC3(F)F)cc2c1C(=O)NC(CO)CC(F)(F)F (single isomer, unassigned) [Cpd 057 - En3, 5-[(2,2-difluorocyclopropyl)methoxy]-2-methyl-N-(4,4,4-trifluoro-1-hydroxybutan-2-yl)-1-benzofuran-3-carboxamide]
